# Data from BindingDB's records for patent US9932341 (Incyte, 2018).
# Biological target: T1, Phosphatidylinositol 4,5-bisphosphate 3-kinase catalytic subunit delta isoform (Homo sapiens, UniProt O00329)
# T1 sequence (O00329 whole entry): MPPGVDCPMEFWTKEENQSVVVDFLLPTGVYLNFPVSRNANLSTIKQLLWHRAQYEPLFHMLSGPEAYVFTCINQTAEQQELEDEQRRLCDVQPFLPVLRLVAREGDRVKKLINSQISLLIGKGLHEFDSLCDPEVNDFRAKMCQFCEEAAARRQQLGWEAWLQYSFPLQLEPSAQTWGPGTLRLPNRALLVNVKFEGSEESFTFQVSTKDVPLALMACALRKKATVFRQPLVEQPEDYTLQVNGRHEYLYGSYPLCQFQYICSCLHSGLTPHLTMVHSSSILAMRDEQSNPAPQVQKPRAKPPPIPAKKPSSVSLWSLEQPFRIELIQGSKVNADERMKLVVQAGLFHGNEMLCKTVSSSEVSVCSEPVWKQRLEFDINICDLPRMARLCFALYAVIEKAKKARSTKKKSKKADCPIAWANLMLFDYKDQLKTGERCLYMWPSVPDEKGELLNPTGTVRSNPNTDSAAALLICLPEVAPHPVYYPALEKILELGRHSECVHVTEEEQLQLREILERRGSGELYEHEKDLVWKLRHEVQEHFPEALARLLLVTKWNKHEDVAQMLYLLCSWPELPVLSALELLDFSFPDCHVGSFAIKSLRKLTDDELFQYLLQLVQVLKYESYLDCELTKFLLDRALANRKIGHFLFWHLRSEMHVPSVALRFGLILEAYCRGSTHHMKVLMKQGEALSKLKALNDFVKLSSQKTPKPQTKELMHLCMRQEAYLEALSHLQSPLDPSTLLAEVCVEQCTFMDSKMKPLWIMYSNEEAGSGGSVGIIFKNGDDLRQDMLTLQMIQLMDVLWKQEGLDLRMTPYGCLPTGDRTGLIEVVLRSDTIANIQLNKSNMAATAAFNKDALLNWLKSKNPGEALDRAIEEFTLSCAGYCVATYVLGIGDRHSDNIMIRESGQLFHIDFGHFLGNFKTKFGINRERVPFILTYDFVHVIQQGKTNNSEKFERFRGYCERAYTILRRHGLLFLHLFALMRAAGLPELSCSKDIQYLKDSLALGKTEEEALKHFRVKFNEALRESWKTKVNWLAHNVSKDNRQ
# Assay: Scintillation Proximity Assay
# Protocol: The kinase reaction was conducted in polystyrene 384-well matrix white plate from Thermo Fisher Scientific in a final volume of 25 uL. Inhibitors were first diluted serially in DMSO and added to the plate wells before the addition of other reaction components. The final concentration of DMSO in the assay was 0.5%. The PI3K assays were carried out at room temperature in 20 mM MOPS, pH 6.7, 10 mM MgCl2, 5 mM DTT and CHAPS 0.03%. Reactions were initiated by the addition of ATP, the final reaction mixture consisted of 20 uM PIP2, 20 uM ATP, 0.2 uCi [γ-33P] ATP, 4 nM PI3K . […] 25 mM EDTA, 400 uM ATP. The final concentration of SPA beads was 1.0 mg/mL. After the plate sealing, plates were shaken overnight at room temperature and centrifuged at 1800 rpm for 10 minutes, the radioactivity of the product was determined by scintillation counting on Topcount (PerkinElmer).
row,IC50 [nM],Compound
1,< 10,"COc1c(C(C)n2nc(C)c3c(N)ncnc32)cc(Cl)c(C)c1-c1ccc(C(=O)N(C)CCO)nc1 (configuration not stated) [US9932341, Example 24]"
2,< 10,"COc1c(C(C)n2nc(C)c3c(N)ncnc32)cc(Cl)c(C)c1-c1cncnc1 (configuration not stated) [US9932341, Example 168]"
